Where no end group is shown, it is not given here.
Assays:
PARP2 = settings: ref [33], [49]; cited from earlier work
BORIS = test: ADP ribosylation of BORIS under olaparib; type: cell-based; settings: PARP inhibitor incubation
Method: HeLa or H1299 cells were lysed in immunoprecipitation (IP) buffer (50 mM Tris–HCl pH 7.4, 150 mM NaCl, 1% NP-40, 1 mM EDTA, 5% glycerol) containing protease inhibitor cocktails. The cell lysates were incubated with mouse anti-Myc (CST, 2276) or rabbit anti-poly/mono-ADP Ribose (E6F6A) monoclonal antibody (CST, 83732) on a rotary shaker at 4 °C overnight. Mouse or rabbit IgG (Santa Cruz, sc-2025 or sc2027) was used as a negative control for detecting the pull-down specificity. Protein G beads (Santa Cruz, sc-2001) or protein A beads (Santa Cruz, sc-2002) were added and incubated at room temperature for 2 h. The agarose beads were collected by centrifugation, washed five times with IP buffer according to the manufacturer’s instructions, and eluted in SDS sample buffer for the subsequent Western blotting assay.

BORIS-N198-228 peptide = test: PARP1-catalyzed in vitro PARylation assay; type: biochemical; settings: recombinant PARP1, ssDNA, 37 °C 30 min, dot blot anti-ADPr
Method: Peptides (1–4 μg) incubated with different samples were added to 50 μL PARP1 reaction buffer (50 mM Tris–HCl at pH 7.4, 2 mM MgCl2, 200 μM NAD^+), which contained 0.2 μg of recombinant PARP1 (Trevigen, 4668–100-01) and 2.5 μg of ssDNA (Sigma, D8899), and reaction was carried out at 37 °C for 30 min. Low molecular weight peptide and PARP1 protein in the reactions were separated by a 30 kDa cutoff centrifugal filter (Millipore, UFC803096). Then, SDS loading buffer was added to separate peptides or proteins and analyzed by dot blotting using an anti- ADP ribosylation (ADPr) antibody.
To further confirm ADP ribosylation at residues 198–228, the synthesized BORIS-N198-228 peptide was subjected to a PARP1-catalyzed in vitro PARylation assay. Single-strand DNA (ssDNA) was added to activate PARP1. The BORIS-N198-228 peptide was separated by centrifugal filtration, and its PARylation levels were examined by dot blotting using an anti-ADPr antibody. […] To determine the modification between residues 198–228, the BORIS-N198-228 peptide was pre-incubated with BTApep-TAT or His-TAT before processing for PARP1-catelyzed in vitro PARylation. […] Taken together, we provided evidence that ADP ribosylation of BORIS was responsible for the association with Ku70 and DNA repair. […]

H1299 cells = test: Proliferation of H1299 cells (MTT, cell counting); type: cell-based; settings: 25 µM (Fig. 2D)
Method: (§1) H1299 cells (RRID: CVCL_0060) were cultured in RPMI 1640 medium supplemented with 10% FBS. HEK293 (RRID:CVCL_0045) and HeLa (RRID:CVCL_0030) cells were cultured in Dulbecco's modified Eagle’s medium (DMEM) supplemented with 10% FBS and placed in 37 ℃ and 5% CO2 incubators. Cells were seeded in 6-well plates at 1 × 10^5 cells/well or in 96-well plates at 2000 cells/well for experiments. Cell viability was measured by MTT assay.
(§2) Cells were plated and treated with BORIS-targeted peptide (BTApep-TAT) or negative control peptide (His-TAT) at concentrations of 10 µM, 25 µM, 50 µM and 100 µM for 3 days. Cell viability was measured by MTT assay. Cell apoptosis was measured by TUNEL assay (cat. # 40306ES20, Yeasen Biotech Co., Ltd) and Caspase-Glo 3/7 assay (G8090, Promega Corporation, an affiliate of Promega (Beijing) Biotech Co., Ltd.).

HEK293 cells = test: Proliferation of HEK293 cells; type: cell-based; settings: 25 µM (Fig. 2D); normal cells not expressing BORIS
Method: as §1, §2

BORIS-N1-258 = biological target: T1, BORIS-N1-258 (Homo sapiens, UniProt Q8NI51); test: BLI, BORIS-N1-258 immobilized on SSA sensor, free peptide in solution; type: binding; settings: free peptide in PBS with 0.02% Tween 20
T1 construct: The N terminal section of BORIS corresponding to AA 1–258 (BORIS-N1-258); 6xHis (C); made in house
T1 sequence (Q8NI51 1-258): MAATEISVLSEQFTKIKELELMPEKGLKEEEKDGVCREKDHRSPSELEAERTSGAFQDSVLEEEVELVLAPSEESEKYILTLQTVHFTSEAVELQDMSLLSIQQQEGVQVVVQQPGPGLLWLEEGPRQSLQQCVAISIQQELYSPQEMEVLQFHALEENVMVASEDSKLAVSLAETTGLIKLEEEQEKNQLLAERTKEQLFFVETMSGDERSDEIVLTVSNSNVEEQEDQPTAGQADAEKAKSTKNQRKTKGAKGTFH
Method: Twelve tandemly connected His was synthesized and conjugated with biotin or FITC as a negative control peptide by China Peptides Co., Ltd. The peptides were stored in powder at -80 °C. The peptides were dissolved in phosphate-buffered saline and filtered through a 0.22 µm filter to remove bacteria before use. The interaction between peptides and BORIS-N1-258 was measured by Bio-layer interferometry (BLI) in the ForteBio OctetRed system. The measurement was carried out in 5 steps: initial baseline duration, loading duration, baseline duration, association duration, and dissociation duration. In loading duration, 10 nM biotinylated peptides or 1 µM BORIS-N1-258 protein were immobilized on streptavidin-coated biosensors (ForteBio). The immobilization typically reached a response level of 4 nm. Association and dissociation curves were obtained through the addition of a dilution series of BORIS-N1-258 or peptides in PBS with 0.02% Tween 20 for the indicated period of time using Octet acquisition software. The binding data were fitted using Octet analysis software.
The BORIS-N1-258 protein was conjugated with biotin and loaded onto an SSA sensor. The synthesized peptides were dissolved in PBS with 0.02% Tween 20.

[1] = biological target: T2, BORIS-N_(1-258) expressed and purified from HEK293 cells (human, UniProt Q8NI51 1-258); test: BLI; ForteBio OctetRed; biotin-labeled peptide 9 loaded onto an SA sensor (10 nM in loading), dilution series of BORIS-N_(1-258) in PBS with 0.02% Tween 20; settings: both partners purified
T2 construct: source: HEK293 cells, expressed and purified
T2 sequence (looked up): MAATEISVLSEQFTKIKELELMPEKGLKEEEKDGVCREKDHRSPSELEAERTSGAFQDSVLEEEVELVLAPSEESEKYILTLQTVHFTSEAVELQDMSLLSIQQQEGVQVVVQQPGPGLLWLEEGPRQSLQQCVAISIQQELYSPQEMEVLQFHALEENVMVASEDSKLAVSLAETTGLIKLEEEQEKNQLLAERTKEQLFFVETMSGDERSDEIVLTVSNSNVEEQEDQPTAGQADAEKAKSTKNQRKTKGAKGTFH

[2] = biological target: T3, BORIS N-terminal region AA 1-258 (BORIS-N_(1-258)), His-tagged, from bacteria (human, UniProt Q8NI51 1-258, biotin (conjugated for loading onto the SSA sensor; position not stated; not said of the protein used free in solution or coated on plates)); test: as above; settings: both partners purified
T3 construct: Cloned in the backbone of plasmid pFN6K; also called BORIS antigen; not shown: His6, C-terminal, kept
T3 sequence (looked up): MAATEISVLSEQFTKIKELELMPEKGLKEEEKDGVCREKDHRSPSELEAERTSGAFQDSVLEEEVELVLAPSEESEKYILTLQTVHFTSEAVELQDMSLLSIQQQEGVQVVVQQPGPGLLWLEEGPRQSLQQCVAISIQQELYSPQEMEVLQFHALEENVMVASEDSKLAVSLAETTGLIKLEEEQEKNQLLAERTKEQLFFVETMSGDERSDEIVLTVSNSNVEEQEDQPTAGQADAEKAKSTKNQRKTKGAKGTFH

[3] = biological target: T3, BORIS N-terminal region AA 1-258 …; test: BLI; ForteBio OctetRed; biotin-conjugated BORIS-N_(1-258) loaded onto an SSA sensor (1 µM in loading), free peptide in solution in PBS with 0.02% Tween 20; settings: both partners purified
[4] = biological target: T3, BORIS N-terminal region AA 1-258 …; test: ELISA; plates coated overnight at 4 °C with purified His-tagged BORIS-N_(1-258) (carbonate buffer, pH 9.6); purified phage clones in serial dilutions, 2 h at RT; detection by HRP-conjugated anti-M13 antibody; settings: both partners purified

Q: With O=C(c1cc(Cc2n[nH]c(=O)c3ccccc23)ccc1F)N1CCN(C(=O)C2CC2)CC1 [Olaparib, olaparib] as the molecule, how does the “inhibition of PARP2” value (PARP2) read?
A: inhibits

Q: What about the “effect on ADP ribosylation of BORIS” value (BORIS) of the same molecule?
A: did not attenuate ADP ribosylation of BORIS

Q: With “BORIS-N198-228 peptide: synthesized peptide of BORIS residues 198–228 (EQLFFVETMSGDERSDEIVLTVSNSNVEEQE; UniProt Q8NI51 198-228, looked up, fragment)” as the molecule, how does the “PARylation of the peptide itself” value (BORIS-N198-228 peptide) read?
A: accumulated in proportion to its abundance

Q: Which “suppression of proliferation of H1299 cells” value (H1299 cells) does the source give for “BTApep: BORIS-targeted peptide lacking the TAT penetrating peptide (VHWDFRQWWQPS)” here?
A: did not inhibit cell proliferation

Q: And the “suppression of proliferation of HEK293 cells” value (HEK293 cells)?
A: did not inhibit cell proliferation

Q: With DWSSWVYRDPQT [Peptide 2] as the molecule, how does the Kd (BORIS-N1-258; bacterial BORIS-N1-258 on SSA sensor, read-out: binding affinity (Kd)) read?
A: 315 µM

Q: Which “affinity in BLI” value (BORIS-N1-258; result in words, BORIS-N1-258 on SSA sensor) does the source give for RFDHWVWQSQPW [Scrambled peptide 9] here?
A: did not have any measurable affinity

B1: Peptide 9 labeled with biotin (peptide)
peptide: VHWDFRQWWQPS
modifications: also: biotin (position not given here)
notes: 12-mer selected from the Ph.D.-12 phage display peptide library; also called BTApep-biotin; biotinylated peptide 9; source: synthetic peptide (China Peptides Co., Ltd.)
Q: For B1, which Kd [1] is on record?
A: 0.00637 µM

Q: And the Kd [2]?
A: 0.0053 µM

B2: Peptide 2 (peptide)
peptide: DWSSWVYRDPQT
notes: 12-mer selected from the Ph.D.-12 phage display peptide library; source: synthetic peptide (China Peptides Co., Ltd.)
Q: Which Kd [3] does the source give for B2 here?
A: 314 µM

B3: Phage clone 9 (peptide 9 displayed on phage) (peptide)
chain: VHWDFRQWWQPSGGGS
notes: 4 amino acid spacer that links the 12-mer to the N-terminus of a phage coat protein; Whole phage particle; source: purified phage clone from the Ph.D.-12 Phage Display Peptide Library (New England Biolabs); not shown: phage coat protein (Ph.D.-12 library), C-terminal, kept
Q: Does B3 bind [4]?
A: binds

B4: Peptide 9 (synthesized, free in solution) (peptide)
peptide: VHWDFRQWWQPS
notes: 12-mer selected from the Ph.D.-12 phage display peptide library; The methods say that the peptides were synthesized and conjugated with biotin or FITC; also called peptide from phage clone 9; BTApep; source: synthetic peptide (China Peptides Co., Ltd.)
Q: Which Kd [3] does the source give for B4 here?
A: 86.4 µM
